This assay addresses T1, recombinant human GR (Homo sapiens, UniProt P04150).
T1 construct: purchased Panvera/Invitrogen P2812 (kit P2893)
T1 sequence (P04150 1-777): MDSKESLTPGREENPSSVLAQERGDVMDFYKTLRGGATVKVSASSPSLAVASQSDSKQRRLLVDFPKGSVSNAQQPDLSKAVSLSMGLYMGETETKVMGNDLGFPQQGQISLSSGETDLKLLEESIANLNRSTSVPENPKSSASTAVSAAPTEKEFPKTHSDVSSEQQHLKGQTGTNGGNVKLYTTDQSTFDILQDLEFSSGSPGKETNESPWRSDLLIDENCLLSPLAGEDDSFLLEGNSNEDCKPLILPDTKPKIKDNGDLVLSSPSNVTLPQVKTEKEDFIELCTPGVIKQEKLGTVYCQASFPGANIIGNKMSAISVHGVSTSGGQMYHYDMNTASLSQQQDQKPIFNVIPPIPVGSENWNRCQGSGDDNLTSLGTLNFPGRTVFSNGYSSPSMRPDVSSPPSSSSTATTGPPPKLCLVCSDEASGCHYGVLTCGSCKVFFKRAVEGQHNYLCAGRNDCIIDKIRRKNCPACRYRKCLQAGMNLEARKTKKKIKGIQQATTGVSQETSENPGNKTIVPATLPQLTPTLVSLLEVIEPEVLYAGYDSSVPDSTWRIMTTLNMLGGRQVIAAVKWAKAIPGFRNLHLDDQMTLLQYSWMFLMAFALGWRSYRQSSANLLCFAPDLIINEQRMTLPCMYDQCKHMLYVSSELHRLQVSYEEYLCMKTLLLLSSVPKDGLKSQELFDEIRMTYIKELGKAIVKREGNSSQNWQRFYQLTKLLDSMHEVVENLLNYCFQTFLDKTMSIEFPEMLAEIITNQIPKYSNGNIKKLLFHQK
In words: Human Glucocorticoid Receptor (GR) Assay (fluorescence polarization, Panvera/Invitrogen kit). The settings on record: fluorescence polarization; GS Red tracer; 2 hours at room temperature; 100% control 10 μM Dexamethasone; read-out: Inhibition of GR binding, IC50. The assay is classed as binding. In short, it runs like this:
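Fluorescence polarization competition with recombinant GR and GS Red fluorescent ligand plus stabilizing peptide and DTT in potassium phosphate/sodium molybdate/EDTA buffer with DMSO. Incubated 2 hours at room temperature in the dark; 0% control DMSO, 100% control 10 μM dexamethasone.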
On the technique in general: Fluorescence polarisation rises when a labelled molecule tumbles more slowly, as on binding a larger partner.

For orientation: IC50 means the concentration needed to halve the response being measured. As to `CSCOC(=O)[C@@]1(OCSC)CC[C@H]2[C@@H]3CCC4=Cc5c(cnn5-c5ccc(F)cc5)C[C@]4(C)[C@H]3[C@@H](O)C[C@@]21C` [Example 120, (Methylsulfanyl)methyl(1R,3aS,3bS,10aR,10bS,11S,12aS)-7-(4-fluorophenyl)-11-hydroxy-10a,12a-dimethyl-1-[(methylsulfanyl)methoxy]-1,2,3,3a,3b,4,5,7,10,10a,10b,11,12,12a-tetradecahydrocyclopenta[5,6]naphtho[1,2-f]indazole-1-carboxylate], the IC50 came to 7 nM. For `COCC(=O)O[C@]1(C(=O)SCCO)CC[C@H]2[C@@H]3CCC4=Cc5c(cnn5-c5ccc(F)nc5)C[C@]4(C)[C@H]3[C@@H](O)C[C@@]21C` [Example 159, (1R,3aS,3bS,10aR,10bS,11S,12aS)-7-(6-Fluoropyridin-3-yl)-11-hydroxy-1-{[(2-hydroxyethyl)sulfanyl]carbonyl}-10a,12a-dimethyl-1,2,3,3a,3b,4,5,7,10,10b,11,12,12a-tetradecahydrocyclopenta[5,6]naphtho[1,2-f]indazol-1-yl methoxyacetate] the value was 3.6 nM. For `CCC(=O)O[C@]1(C(=O)SCC#N)CC[C@H]2[C@@H]3CCC4=Cc5c(cnn5-c5ccc(F)nc5)C[C@]4(C)[C@H]3[C@@H](O)C[C@@]21C` [Example 97, (1R,3aS,3bS,10aR,10bS,11S,12aS)-1-{[(Cyanomethyl)sulfanyl]carbonyl}-7-(6-fluoropyridin-3-yl)-11-hydroxy-10a,12a-dimethyl-1,2,3,3a,3b,4,5,7,10,10a,10b,11,12,12a-tetradecahydrocyclopenta[5,6]naphtho[1,2-f]indazol-1-yl propanoate] the value was 2.1 nM. For `COCCC(=O)O[C@]1(C(=O)SCC#N)CC[C@H]2[C@@H]3CCC4=Cc5c(cnn5-c5ccc(F)cc5)C[C@]4(C)[C@H]3[C@@H](O)C[C@@]21C` [Example 62, (1R,3aS,3bS,10aR,10bS,11S,12aS)-1-{[(Cyanomethyl)thio]carbonyl}-7-(4-fluorophenyl)-11-hydroxy-10a,12a-dimethyl-1,2,3,3a,3b,4,5,7,10,10a,10b,11,12,12a-tetradecahydrocyclopenta[5,6]naphtho[1,2-f]indazol-1-yl 3-methoxypropanoate] the value was 2.2 nM; for `CCSC(=O)COC(=O)[C@@]1(OC(C)=O)CC[C@H]2[C@@H]3CCC4=Cc5c(cnn5-c5ccc(F)cc5)C[C@]4(C)[C@H]3[C@@H](O)C[C@@]21C` [Example 121, 2-(Ethylsulfanyl)-2-oxoethyl(1R,3aS,3bS,10aR,10bS,11S,12aS)-1-(acetyloxy)-7-(4-fluorophenyl)-11-hydroxy-10a,12a-dimethyl-1,2,3,3a,3b,4,5,7,10,10a,10b,11,12,12a-tetradecahydrocyclopenta[5,6]naphtho[1,2-f]indazole-1-carboxylate], 6.6 nM.

Consider `C[C@]12Cc3cnn(-c4ccc(F)nc4)c3C=C1CC[C@@H]1[C@@H]2[C@@H](O)C[C@@]2(C)[C@H]1CC[C@]2(OC(=O)c1cocn1)C(=O)SCC#N` [Example 160, (1R,3aS,3bS,10aR,10bS,11S,12aS)-1-{[(Cyanomethyl)sulfanyl]carbonyl}-7-(6-fluoropyridin-3-yl)-11-hydroxy-10a,12a-dimethyl-1,2,3,3a,3b,4,5,7,10,10a,10b,11,12,12a-tetradecahydrocyclopenta[5,6]naphtho[1,2-f]indazol-1-yl 1,3-oxazole-4-carboxylate], for which the IC50 worked out at 2.1 nM. The same measure for `CSCO[C@]1(C(=O)SCF)CC[C@H]2[C@@H]3CCC4=Cc5c(cnn5-c5ccc(F)cc5)C[C@]4(C)[C@H]3[C@@H](O)C[C@@]21C` [Example 125, S-(Fluoromethyl)(1R,3aS,3bS,10aR,10bS,11S,12aS)-7-(4-fluorophenyl)-11-hydroxy-10a,12a-dimethyl-1-[(methylsulfanyl)methoxy]1,2,3,3a,3b,4,5,7,10,10a,10b,11,12,12a-tetradecahydrocyclopenta[5,6]naphtho[1,2-f]indazole-1-carbothioate]: 4.7 nM.

On to `CC(=O)OCSC(=O)[C@@]1(OC(=O)c2ccco2)CC[C@H]2[C@@H]3CCC4=Cc5c(cnn5-c5ccc(F)cc5)C[C@]4(C)[C@H]3[C@@H](O)C[C@@]21C` [Example 94, (1R,3aS,3bS,10aR,10bS,11S,12aS)-1-({[(Acetyloxy)methyl]sulfanyl}carbonyl)-7-(4-fluorophenyl)-11-hydroxy-10a,12a-dimethyl-1,2,3,3a,3b,4,5,7,10,10a,10b,11,12,12a-tetradecahydrocyclopenta[5,6]naphtho[1,2-f]indazol-1-yl furan-2-carboxylate], for which the IC50 worked out at 5.9 nM. The same measure for `CCSC(=O)[C@@]1(OC(=O)c2scnc2C)CC[C@H]2[C@@H]3CCC4=Cc5c(cnn5-c5ccc(F)cc5)C[C@]4(C)[C@H]3[C@@H](O)C[C@@]21C` [Example 3, (1R,3aS,3bS,10aR,10bS,11S,12aS)-1-[(Ethylthio)carbonyl]-7-(4-fluorophenyl)-11-hydroxy-10a,12a-dimethyl-1,2,3,3a,3b,4,5,7,10,10a,10b,11,12,12a-tetradecahydrocyclopenta[5,6]naphtho[1,2-f]indazol-1-yl 4-methyl-1,3-thiazole-5-carboxylate]: 15 nM. `C[C@]12Cc3cnn(-c4ccc(F)cc4)c3C=C1CC[C@@H]1[C@@H]2[C@@H](O)C[C@@]2(C)[C@H]1CC[C@]2(OC(=O)c1cocn1)C(=O)SCC#N` [Example 43, (1R,3aS,3bS,10aR,10bS,11S,12aS)-1-{[(Cyanomethyl)thio]carbonyl}-7-(4-fluoro-phenyl)-11-hydroxy-10a,12a-dimethyl-1,2,3,3a,3b,4,5,7,10,10a,10b,11,12,12a-tetradecahydrocyclopenta[5,6]naphtho[1,2-f]indazol-1-yl 1,3-oxazole-4-carboxylate]: the IC50 was found to be 2.7 nM.

Turning to `C[C@]12Cc3cnn(-c4ccc(F)cc4)c3C=C1CC[C@H]1[C@@H]3CC[C@](OC(=O)c4ccco4)(C(=O)SCC#N)[C@@]3(C)C[C@H](O)[C@@]12F` [Example 193, (1R,3aS,3bS,10aS,10bR,11S,12aS)-1-{[(Cyanomethyl)sulfanyl]carbonyl}-10b-fluoro-7-(4-fluorophenyl)-11-hydroxy-10a,12a-dimethyl-1,2,3,3a,3b,4,5,7,10,10a,11,12,12a-tetradecahydrocyclopenta[5,6]naphtho[1,2-f]indazol-1-yl furan-2-carboxylate], the IC50 worked out at 3.3 nM. The same measure for `C=C(CSC(=O)[C@@]1(OC(=O)c2ccco2)CC[C@H]2[C@@H]3CCC4=Cc5c(cnn5-c5ccc(F)cc5)C[C@]4(C)[C@H]3[C@@H](O)C[C@@]21C)OCOC` [Example 88, (1R,3aS,3bS,10aR,10bS,11S,12aS)-7-(4-fluorophenyl)-11-hydroxy-1-({[2-(methoxymethoxy)prop-2-en-1-yl]sulfanyl}carbonyl)-10a,12a-dimethyl-1,2,3,3a,3b,4,5,7,10,10a,10b,11,12,12a-tetradecahydrocyclopenta[5,6]naphtho[1,2-f]indazol-1-yl furan-2-carboxylate]: 13 nM; for `CCC(=O)O[C@]1(C(=O)SCC(=O)N(C)C)CC[C@H]2[C@@H]3CCC4=Cc5c(cnn5-c5ccc(F)cc5)C[C@]4(C)[C@H]3[C@@H](O)C[C@@]21C` [Example 22, (1R,3aS,3bS,10aR,10bS,11S,12aS)-1-({[2-(Dimethylamino)-2-oxoethyl]thio}carbonyl)-7-(4-fluorophenyl)-11-hydroxy-10a,12a-dimethyl-1,2,3,3a,3b,4,5,7,10,10a,10b,11,12,12a-tetradecahydrocyclopenta[5,6]naphtho[1,2-f]indazol-1-yl propanoate]: 3.9 nM; for `CCC(=O)O[C@]1(C(=O)SCCOC(C)=O)CC[C@H]2[C@@H]3CCC4=Cc5c(cnn5-c5ccc(F)cc5)C[C@]4(C)[C@H]3[C@@H](O)C[C@@]21C` [Example 95, (1R,3aS,3bS,10aR,10bS,11S,12aS)-1-({[2-(Acetyloxy)ethyl]sulfanyl}carbonyl)-7-(4-fluorophenyl)-11-hydroxy-10a,12a-dimethyl-1,2,3,3a,3b,4,5,7,10,10a,10b,11,12,12a-tetradecahydrocyclopenta[5,6]naphtho[1,2-f]indazol-1-yl propanoate]: 4.7 nM. The same measure for `COCC(=O)O[C@]1(C(=O)SCC#N)CC[C@H]2[C@@H]3C[C@H](C)C4=Cc5c(cnn5-c5ccc(F)cc5)C[C@]4(C)[C@H]3[C@@H](O)C[C@@]21C` [Example 215, (1R,3aS,3bS,5S,10aR,10bS,11S,12aS)-1-{[(Cyanomethyl)sulfanyl]carbonyl}-7-(4-fluorophenyl)-11-hydroxy-5,10a,12a-trimethyl-1,2,3,3a,3b,4,5,7,10,10a,10b,11,12,12a-tetradecahydrocyclopenta[5,6]naphtho[1,2-f]indazol-1-yl methoxyacetate]: 51 nM.

(Values after patent US8163724B2, “Glucocorticosteroids, processes for their preparation, pharmaceutical compositions containing them and their use in therapy” (AstraZeneca AB, priority 2007, dated 2012).)
